Data published in patent US4758577A, “4-(5H-dibenzo[a,d]cyclohepten-5-yl)piperidine compounds for treating cardiovascular disorders” (Merck & Co., Inc., priority 1984, dated 1988).

These compounds were tested on vascular smooth muscle (assay: inhibition of calcium induced contraction of tracheal smooth muscle or vascular tissue (segments of vascular smooth muscle in a tissue bath, depolarized, 0.1 mM calcium chloride re-added)). Settings: Rattus norvegicus; 10^-7 M; second contraction vs initial contraction.
Format: cell-based, male Sprague-Dawley rats
Experimental: The property may be observed in a test in which segments of vascular smooth muscle obtained from male Sprague-Dawley rats are suspended in physiological salt solution in a tissue bath instrumented for recording contractions. After the tissue has been equilibrated, washed in calcium-free physiological salt solution and depolarized, 0.1 mM calcium chloride is re-added to induce contraction. After the contraction has reached a plateau, tissues are washed and a test compound or vehicle is added to determine the effect on a second contraction achieved by the above cyclic protocol. From measuring the initial contraction as well as the second contraction in the presence of the first compound, the extent of inhibition may be calculated.

`CN(C)c1ccc(CN2CCC(C3c4ccccc4C=Cc4ccccc43)CC2)cc1` [4-(5H-Dibenzo[a,d]cyclohepten-5-yl)-1-(4-dimethylaminobenzyl)piperidine] was tested. Which inhibition at 0.1 µM did it give?
The inhibition at 0.1 µM was 69%.

How did the inhibition at 0.1 µM turn out when `COc1cc(C=CCN2CCC(C3c4ccccc4C=Cc4ccccc43)CC2)cc(OC)c1OC` [4-(5H-Dibenzo[a,d]cyclohepten-5-yl)-1-(3-(3,4,5-trimethoxyphenyl)prop-2-en-1-yl)piperidine] was run?
Its inhibition at 0.1 µM is 68%.

How did the inhibition at 0.1 µM turn out when `C(=Cc1ccccc1)CN1CCC(C2c3ccccc3C=Cc3ccccc32)CC1` [4-(5H-Dibenzo[a,d]cyclohepten-5-yl)-1-cinnamylpiperidine] was run?
The inhibition at 0.1 µM was 70%.
